≈ marks a conversion by molar mass, not a printed value. Read-outs that look alike come from different tables or passages of the source.
Tests used:
[1] = solubility in DMSO at room temperature; format: physicochemical; conditions: for Sol^y in DMSO / Sol^y Ratio: room temperature; for Sol^y Ratio: solubility in solvent (DMSO):solubility in water
From the text: For these compounds the following table gives comparison water and solvent solubilities at room temperature. […]

[2] = benzyl alcohol, chloroform, acetone, acetonitrile; cited from earlier work
[3] = background description; cited from earlier work
[4] = solubility in water at room temperature; format: physicochemical; conditions: for Sol^y in water: room temperature
From the text: For these compounds the following table gives comparison water and solvent solubilities at room temperature.

[5] = background description; cited from earlier work; remark: listed apart in the source

| Structure (SMILES) | Sol^y in DMSO [1] [g/L] | Sol^y Ratio [1] | solubility ([1]; DMSO, organic solvent or mixture, room temp, Example 3) [mg/mL] | solubility in water (in words) ([4]; Example 3) | solubility in organic solvents (in words) [2] | solubility in water (in words) [3] | Sol^y in water [4] | lipophilicity (in words) [5] |
| --- | --- | --- | --- | --- | --- | --- | --- | --- |
| CC[C@@]1(O)C(=O)OCc2c1cc1n(c2=O)Cc2cc3ccccc3nc2-1 [Camptothecin] | 10 | >10^3 |  |  |  |  | insol (insoluble means less than 10 mg/l) |  |
| C[C@@H]1C[C@H]2[C@@H]3CCC4=CC(=O)C=C[C@]4(C)[C@@]3(F)[C@@H](O)C[C@]2(C)[C@@]1(O)C(=O)CO [Dexamethasone] | 600 | >10^5 | ~60 (≈ 153 mM) | practically insoluble in water |  |  | insol (insoluble means less than 10 mg/l) |  |

More lines, main results first:

| Sol^y in DMSO [1] [g/L] | Sol^y Ratio [1] | solubility ([1]; DMSO, organic solvent or mixture, room temp, Example 3) [mg/mL] | solubility in water (in words) ([4]; Example 3) | Structure (SMILES) | solubility in organic solvents (in words) [2] | solubility in water (in words) [3] | Sol^y in water [4] | lipophilicity (in words) [5] |
| --- | --- | --- | --- | --- | --- | --- | --- | --- |
| 25 | >4 × 10^4 |  |  | CO[C@H]1C[C@@H]2CC[C@@H](C)[C@@](O)(O2)C(=O)C(=O)N2CCCC[C@H]2C(=O)O[C@H]([C@H](C)C[C@@H]2CC[C@@H](O)[C@H](OC)C2)CC(=O)[C@H](C)/C=C(\C)[C@@H](O)[C@@H](OC)C(=O)[C@H](C)C[C@H](C)/C=C/C=C/C=C/1C [Rapamycin] | freely soluble in benzyl alcohol, chloroform, acetone, and acetonitrile | insoluble in water | 0.69 mg/L |  |
| 200 | >5 × 10^4 |  |  | CN(Cc1cnc2nc(N)nc(N)c2n1)c1ccc(C(=O)N[C@@H](CCC(=O)O)C(=O)O)cc1 [Methotrexate] |  |  | insol (insoluble means less than 10 mg/l) |  |
| 50 |  |  |  | CC(=O)O[C@H]1C(=O)[C@@]2(C)[C@H]([C@H](OC(=O)c3ccccc3)[C@]3(O)C[C@H](OC(=O)[C@H](O)[C@@H](NC(=O)c4ccccc4)c4ccccc4)C(C)=C1C3(C)C)[C@]1(OC(C)=O)CO[C@@H]1C[C@@H]2O [Paclitaxel, 5β,20-Epoxy-1,2α,4,7β,10β,13α-hexahydroxytax-11-en-9-one 4,10-diacetate-2-benzoate 13-ester with (2R,3S)—N-benzoyl-3-phenylisoserine] |  | insoluble in water | 0.3 to 30 mg/L | highly lipophilic |
